Test results from patent publication US6967100B2, “Pancreatic islet cell growth factors” (The Walter and Eliza Hall Institute of Medical Research, priority 2000, dated 2005).

Assays:
[1] = test system: 13.5 dpc fetal mouse pancreas cells; assay: Low cell density serum-free culture of 13.5 dpc fetal mouse pancreatic cells: total and insulin-positive β cell number; assay type: cell-based; conditions: for laminin-1 induced/mediated β cell differentiation: with laminin-1, four days
Method: (§1) Dissociated fetal pancreas cells were prepared from 13.5 dpc CBA mice. Pregnant mice at 13.5 dpc were killed by cervical dislocation and fetuses collected into ice cold sterile mouse tonicity phosphate-buffered saline (MTPBS). Fetal pancreata were harvested under an Olympus dissection microscope into RPMI 1640 medium and dissociated in a shaking water bath at 37° C. for 11 mins in Ca^2+/Mg^2+-free PBS containing 0.5% v/v trypsin/EDTA as described for testis by Bucci et al. (1986). After dissociation, trypsin was inactivated by addition of 8% w/v bovine serum albumin (BSA, fraction V) (Sigma, St. Louis, USA). The tissue was aspirated several times in a pipette, passed through a 27 gauge needle to make a single cell suspension and then rinsed in 10 μg/ml DNAse I (Promega, Madison, USA) in RPMI 1640 for 10 mins to reduce cellular aggregates. Cell suspensions were filtered through a 70-100 μm steel mesh, centrifuged at 400×g for 5 mins and the supernatant discarded. The cell pellet was resuspended in HYBRIDOMA medium and stored on ice. Cells were counted under a haemocytometer and viability was determined by exclusion of 0.2% v/v trypan blue dye. Pancreatic cells were plated in 8 chamber slides (Nunc) at 1.5×10^4 cells/well in 0.3 ml HYBRIDOMA medium 500 UI/ml penicillin and 500 μg/ml streptomycin. The cells were cultured in 10% v/v CO2, 90% v/v air at 37° C. with 100% humidity for four days in the presence of factors such as laminin-1 and BMPs.
Fetuses at 15.5 and 18.5 dpc from homozygous (−/−) or heterozygous (+/−) α6 integrin gene targeted (Georges-Labouesse et al., 1996) or wild type mice were fixed overnight in Bouin ? s solution. After standard dehydration processing, fetuses were embedded into paraffin and sectioned at 7 μm. Cultured pancreatic cells were washed three times with warm mouse tonicity phosphate buffered saline (MT-PBS) and fixed with 4% paraformaldehyde (PFA) for 10 mins. Endogenous peroxidase was blocked by 3% v/v H2O2 in methanol for 8 mins. Prior to antibody staining, non-specific protein binding was blocked by incubation for at least 30 mins with MT-PBS containing 2% w/v bovine serum albumin or 2% v/v normal rabbit serum. Controls were performed by replacing first antibody with pre-immune serum from the appropriate species. Cell were incubated with primary antibodies for 90 mins at room temperature, followed by three thorough washes with MT-PBS. Horseradish peroxidase-conjugated rabbit anti-guinea pig or swine anti-rabbit immunoglobulins (Dako) were added for 30 mins at room temperature followed by thorough washes. Immunoperoxidase was detected with 3,3′-diamninobenzidine/H2O2 for 4-8 mins, and slides were counterstained with haematoxylin.
Immunoperoxidase positive and negative cells were quantitated in the central strip of each culture chamber (a 90×90 mm square) under a microscope equipped with an eyepiece graticule (Olympus, Japan) at ×40 power and calibrated with a micrometer (Olympus). All data are presented as mean±s.e.m of at least three independent experiments.

[2] = test system: 13.5 dpc fetal mouse pancreas cells; assay: Colony formation of 13.5 dpc fetal mouse pancreas cells cultured with BMPs and laminin-1; assay type: cell-based; conditions: 13.5 dpc fetal pancreas cells
Method: as §1
(§2) After four days in culture, cells were washed twice with warm MT-PBS and fixed with a 4% v/v paraformaldehye for 10 mins. In some cases, 100 μM BrdU was added to label proliferating cells 12 hours before fixation and detection with monoclonal antibody to BrdU and FITC-labelled rabbit anti-mouse immunoglobulin. For immunoperoxidase staining, endogenous peroxidase was blocked by 3% v/v H2O2 in methanol for 8 mins and, prior to addition of primary antibody, non-specific protein binding was blocked by incubation for at least 30 mins in MTPBS containing 2% w/v BSA or 2% v/v normal rabbit serum. Controls were performed by replacing primary antibody with pre-immune serum from the appropriate species. Tissue sections or cells were incubated with primary antibodies for 90 min RT, followed by three thorough washes with MTPBS. For immunoperoxidase staining, horseradish peroxidase-conjugated rabbit anti-guinea pig, swine anti-rabbit or rabbit anti-mouse immunoglobulins (Dako) diluted 1:80 were added for 30 mins at RT followed by thorough washes; colour was developed with 3,3′-diaminobenzidine/H2O2 for 4-8 mins and slides counterstained with haematoxylin.
A pancreatic cell colony was defined as a spherical collection of 20 cells. Colonies were counted under a×10 power objective with an eyepiece graticule.

[3] = test system: 13.5 dpc fetal mouse pancreas cells; assay: BrdU labelling of proliferating cells in 13.5 dpc fetal mouse pancreas cell culture; assay type: cell-based; conditions: 100 μM BrdU, laminin-1 (200 μg/ml), with or without GoH3, days 1-4
Method: as §2, with “For immunoperoxidase staining, horseradish peroxidase-conjugated rabbit anti-guinea pig, swine anti-rabbit or rabbit anti-mouse immunoglobulins (Dako) diluted 1:80 were added for 30 mins at RT followed by thorough washes; colour was developed with 3,3′-diaminobenzidine/H2O2 for 4-8 mins and slides counterstained with haematoxylin.” left out
In some cultures, 100 μM BrdU (Sigma) was included to label proliferating cells; cells were fixed by 4% PFA at days 1, 2, 3 and 4 for insulin and BrdU double immunofluorescence staining. […] Slides were observed and photomicrographed under a Zeis Axiopot fluorescence microscope.

α6 integrin and α-DG = assay: Indirect immunofluorescence for α6 integrin and α-DG expression in cultured fetal pancreas cells; assay type: cell-based, mouse; conditions: day 2 (laminin-1 alone: day 2 and four)
Method: In some cultures, 100 μM BrdU (Sigma) was included to label proliferating cells; cells were fixed by 4% PFA at days 1, 2, 3 and 4 for insulin and BrdU double immunofluorescence staining. Fetuses were directly snap-frozen in liquid nitrogen, section at 8 μm, the sections air-dried for 40-60 mins and fixed in cold (−20° C.) acetone for 10 mins. Pre-treatment and primary antibody incubations were as described above, followed by incubation with Texas Red-conjugated goat anti-guinea pig immunoglobulins (Vector Laboratories, Burlingame, USA) or fluorescein isothiocyanate (FITC)-conjugated rabbit anti-mouse, -rat or -goat or swine anti-rabbit immunoglobulins (Dako) for 30 mins at room temperature and three thorough washes. Slides were observed and photomicrographed under a Zeis Axiopot fluorescence microscope.

[4] = test system: E15.5 CBA mouse fetal pancreas cells; assay: Cystic colony formation of E15.5 fetal mouse pancreas cells in laminin-1 overlay culture; assay type: cell-based
Method: Pancreata were dissected from embryonic day (E)15.5 CBA mouse fetuses and dissociated into single cells as described (Jiang et al., 1999). Briefly, dissected pancreas was digested with trypsin/EDTA for 15 minutes at 37° C. in a shaking water bath. Cells were counted in a haemocytometer and viability determined by trypan blue dye exclusion. Each fetal pancreas yielded 50,000 viable cells (48,509±11,299, n=14). Dissociated cells were plated in 8 well chamber slides (Nunc, Naperville, USA) at 7.5×10^4 cells/well in 0.3 ml AIM V medium supplemented with N-2 (1:100, Gibco BRL Life Technologies, Gaithersburg, USA), 500 UI/ml penicillin and 500 μg/ml streptomycin. Laminin-1 (160 μg/ml), purified from murine Engelbreth-Holm-Swarm tumor basement membrane (Becton Dickinson Labware, Bedford, USA), was overlayed on cells in the presence of various growth factors. Cultures were incubated in 10% CO2 90% air at 37° C., for up to 6 days. Recombinant human BMP 6 and BMP 5, recombinant human TGF-β1 and recombinant activin A were purchased from R&D Systems (Minneapolis, USA). These factors, dissolved at a concentration of 10 ng/μl in mouse tonicity phosphate buffered saline (PBS) containing 0.1% w/v bovine serum albumin (BSA), were added at the start of culture. Phase contrast images of colonies were photographed with Olympus IX70 digitized camera.
Colony formation was assessed at day 6 of culture. A colony was defined as a cellular sphere ≧30 μm in diameter, which contained more than 20 cells. The number of colonies per well was counted directly under a inverted microscope at ×10. Colony counts were performed using a blind design.

## fibronectin
[1]; four days culture, compared to medium alone
  inhibition of pancreatic / β cell survival: no effect

## O=c1c(-c2ccc(O)cc2)coc2cc(O)cc(O)c12 [genistein]
[1]
  laminin-1 induced/mediated β cell differentiation: did not affect

## HGF: candidate growth factor
[2]
  proliferation or colony formation, candidate growth factors individually: unable to promote proliferation or colony formation

## gastrin
[2]
  proliferation or colony formation, candidate growth factors individually: unable to promote proliferation or colony formation

## PYY: candidate growth factor
[2]
  proliferation or colony formation, candidate growth factors individually: unable to promote proliferation or colony formation

## laminin-1: heterotrimeric matrix glycoprotein prepared from murine Englebreth-Holm-Swarm tumour cell basement membrane
[3]
  BrdU-positive cells: 2.5%
α6 integrin and α-DG
  proportion of cells positive for both α6 integrin and α-DG: approximately 10%
[1]; in the presence of soluble laminin-1
  glucagon-positive cell number: unchanged
[1]; laminin-1 without or with 40 μg/ml GoH3, mean±s.e.m
  total cell number per well: 4016±650
[1]; laminin-1 without or with 40 μg/ml GoH3, mean±s.e.m n=3
  β cell number per well: 2265±240
[1]; soluble laminin-1, four days culture
  increase in number of insulin-positive β cells: 60 fold

## CO[C@H]1[C@@H](OC)C[C@H](C)[C@@H](OC)C2=CC(=O)C=C(NC(=O)/C(C)=C/C=C\[C@H](OC)[C@@H](OC(N)=O)/C(C)=C/[C@@H]1C)C2=O [herbimycin A]
[1]
  laminin-1 induced/mediated β cell differentiation: did not affect

## C=C1[C@@H](C)[C@H]2[C@H](Cc3ccccc3)NC(=O)[C@]23[C@H](OC(C)=O)/C=C/[C@@](C)(O)C(=O)[C@@H](C)C/C=C/[C@H]3[C@@H]1O [Cytochalasin D]
[1]
  laminin-1 induced/mediated β cell differentiation: increased

## TGF-β1: recombinant human TGF-β1 from R&D Systems
[4]; 100 ng/ml against BMP 6 10 ng/ml, laminin-1 160 μg/ml, p<0.01 (FIG. 10B)
  BMP 6-induced colony formation: antagonized
[4]; 100 ng/ml, laminin-1 160 μg/ml (FIG. 10A)
  colony formation relative to laminin-1 alone: suppressed colony formation to levels below that observed with laminin-1 alone
[4]; dose-dependency of inhibition, BMP 6 10 ng/ml (FIG. 10C)
  potency of inhibition of BMP 6-induced colony numbers relative to Activin A: 100 fold

## COc1cccc(-c2cc(=O)c3ccccc3o2)c1N [PD98059]
[1]
  laminin-1 induced/mediated β cell differentiation: increased

## heparin
[1]; heparin at 100 μM, laminin-1 plus GoH3
  effect on the GoH3-induced increase in β cell differentiation: blocked the effect of α6 integrin antibody GoH3
[1]; with laminin-1, heparin at 100 μM, p<0.05
  number of total and β cells: significantly decreased

## EGF: candidate growth factor (NSDSECPLSHDGYCLHDGVCMYIEALDKYACNCVVGYIGERCQYRDLKWWELR; Epidermal growth factor; UniProt P01133 971-1023, looked up)
[2]
  proliferation or colony formation, candidate growth factors individually: unable to promote proliferation or colony formation
